Laboratory results: patent publication US9115085B2, “Crystalline forms of a prolyl hydroxylase inhibitor” (FibroGen, Inc., priority 2012, dated 2015)
Each block holds one compound with its values, some of them ahead of it.

Columns and labels:
[1] = Solid form stability on storage (XRPD); type: physicochemical; conditions: for XRPD pattern / form after storage: 40° C./75% RH
Text: X-Ray Powder Diffraction patterns were collected on a Bruker AXS C2 GADDS diffractometer using Cu Kα radiation (40 kV, 40 mA), automated XYZ stage, laser video microscope for auto-sample positioning and a HiStar 2-dimensional area detector. X-ray optics consists of a single Gobel multilayer mirror coupled with a pinhole collimator of 0.3 mm. […] Alternatively, X-Ray Powder Diffraction patterns were collected on a Bruker D8 diffractometer using Cu Kα radiation (40 kV, 40 mA), θ-2θ goniometer, and divergence of V4 and receiving slits, a Ge monochromator and a Lynxeye detector. […] The software used for data collection was Diffrac Plus XRD Commander v2.5.0 and the data were analyzed and presented using Diffrac Plus EVA v11.0.0.2 or v13.0.0.2. Samples were run under ambient conditions as flat plate specimens using powder as received. The sample was gently packed into a cavity cut into polished, zero-background (510) silicon wafer. The sample was rotated in its own plane during analysis. The details of the data collection are: • Angular range: 2 to 42°2θ • Step size: 0.05°2θ • Collection time: 0.5 s/step • Analysis duration: 7 minutes Differential Scanning Calorimetry (DSC)

Hep3B cells = experiment: Cell-based EPO assay; design: species or system human; conditions: 30 μM compound in DMSO compared to DMSO only control, 72 hours
Experimental: Hep3B cells (human hepatocellular carcinoma cells from ATCC, cat #HB-8064) were plated at 25,000 cells per well 96 well plates. The next day, the cells were washed once with DMEM (Cellgro, cat #10-013-CM)+0.5% fetal bovine serum (Cellgro, cat #35-010-CV) and incubated with various concentrations of compound or vehicle control (0.15% DMSO) in DMEM+0.5% fetal bovine serum for 72 hours. Cell free culture supernatants were generated by transfer to a conical bottom 96 well plate and centrifugation for 5 minutes at 2000 rpm. The supernatant was quantitated for EPO using a human EPO ELISA kit (R&D Systems, cat #DEP 00). The EPO values for the compounds reported herein (e.g., Table 22) are the measured value for cells plus compound minus the value for the vehicle control for the same cell preparation. The EPO values for the vehicle control for the cell preparations varied from 0-12.5 mIU/mL.

Moisture sorption = type: physicochemical; conditions: from 5% to 95% relative humidity; lost on desorption

Compound: [(4-hydroxy-1-methyl-7-phenoxy-isoquinoline-3-carbonyl)-amino]-acetic acid diethanolamine salt [Compound A diethanolamine salt]
XRPD pattern / form after storage [1]: Pattern 2

Compound: [(4-hydroxy-1-methyl-7-phenoxy-isoquinoline-3-carbonyl)-amino]-acetic acid hemihydrate [Compound A Form B]
form conversion on storage ([1]; ambient temperature, full month (32 days), high resolution XRPD): almost completely reverted to anhydrous Form A
crystalline pattern change on storage ([1]; stored at 25° C./96% RH for twelve days): reverting to Form A

The next lines start with results.

form conversion ([1]; left drying at ambient temperature): converted to Form A
Compound: Cc1nc(C(=O)NCC(=O)O)c(O)c2ccc(Oc3ccccc3)cc12 [Compound A Form D, [(4-hydroxy-1-methyl-7-phenoxy-isoquinoline-3-carbonyl)-amino]-acetic acid DMSO:water solvate]

moisture sorption weight gain (Moisture sorption): approximately 0.2%
relative stability of crystalline forms ([1]; among Form B, C, and D of Compound A): most stable crystalline form
Compound: Cc1nc(C(=O)NCC(=O)O)c(O)c2ccc(Oc3ccccc3)cc12 [Compound A Form A, [(4-hydroxy-1-methyl-7-phenoxy-isoquinoline-3-carbonyl)-amino]-acetic acid]
Cell EPO (Hep3B cells): 182 mIU/mL

XRPD pattern / form after storage [1]: Pattern 3
Compound: Cc1nc(C(=O)NCC(=O)O)c(O)c2ccc(Oc3ccccc3)cc12.NCCO [Compound A ethanolamine salt, [(4-hydroxy-1-methyl-7-phenoxy-isoquinoline-3-carbonyl)-amino]-acetic acid ethanolamine salt]
